Entries after “also recorded” stand apart in the source; their conditions may differ. Read-outs that look alike come from different tables or passages of the source.
Tests used:
[1] = type: in vivo, human; conditions: study 1
[2] = type: in vivo, human; conditions: study 2
[3] = target: T1, organic cation transporter 2 (OCT2) (Homo sapiens, UniProt O15244); test: In vitro transporter inhibition: OCT2; type: in vitro ADME; conditions: data on file at Gilead Sciences, Inc.
T1 sequence (O15244 1-555): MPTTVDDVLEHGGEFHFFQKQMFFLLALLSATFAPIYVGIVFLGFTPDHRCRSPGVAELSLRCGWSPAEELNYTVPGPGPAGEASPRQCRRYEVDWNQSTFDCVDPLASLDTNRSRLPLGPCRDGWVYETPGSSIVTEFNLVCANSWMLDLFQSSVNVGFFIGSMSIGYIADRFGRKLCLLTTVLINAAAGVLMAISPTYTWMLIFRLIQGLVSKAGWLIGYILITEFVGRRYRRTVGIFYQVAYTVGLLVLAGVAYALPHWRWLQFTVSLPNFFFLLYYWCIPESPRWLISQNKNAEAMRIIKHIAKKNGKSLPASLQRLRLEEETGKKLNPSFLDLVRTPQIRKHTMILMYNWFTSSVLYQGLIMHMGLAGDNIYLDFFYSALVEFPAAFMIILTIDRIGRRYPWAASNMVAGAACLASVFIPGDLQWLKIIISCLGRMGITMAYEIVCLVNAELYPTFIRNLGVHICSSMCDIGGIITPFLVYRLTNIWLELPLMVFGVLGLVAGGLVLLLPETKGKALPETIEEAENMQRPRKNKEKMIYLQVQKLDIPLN

MATE2K = MATE2K (Homo sapiens, UniProt Q86VL8); test: In vitro transporter inhibition: MATE2K; type: in vitro ADME; conditions: data on file at Gilead Sciences, Inc.
Sequence of MATE2K (Q86VL8 1-566 isoform Q86VL8-3): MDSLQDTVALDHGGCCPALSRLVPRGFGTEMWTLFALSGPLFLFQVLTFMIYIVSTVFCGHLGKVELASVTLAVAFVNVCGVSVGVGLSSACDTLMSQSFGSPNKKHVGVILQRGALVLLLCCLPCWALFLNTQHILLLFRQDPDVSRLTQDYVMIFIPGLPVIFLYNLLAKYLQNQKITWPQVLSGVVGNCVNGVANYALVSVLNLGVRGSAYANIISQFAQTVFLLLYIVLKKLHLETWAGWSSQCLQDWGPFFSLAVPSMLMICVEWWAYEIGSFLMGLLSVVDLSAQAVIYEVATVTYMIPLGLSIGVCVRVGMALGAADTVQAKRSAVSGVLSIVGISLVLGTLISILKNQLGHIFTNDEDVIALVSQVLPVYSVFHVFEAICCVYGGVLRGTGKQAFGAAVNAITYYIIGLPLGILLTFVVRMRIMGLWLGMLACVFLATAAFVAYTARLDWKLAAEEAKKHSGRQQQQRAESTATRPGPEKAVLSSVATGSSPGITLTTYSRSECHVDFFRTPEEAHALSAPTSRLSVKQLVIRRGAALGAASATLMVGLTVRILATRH

JAK1 = conditions: cited from earlier work
[4] = filgotinib: unchanged; cited from earlier work
P‐glycoprotein = conditions: in vitro; cited from earlier work
P‐gp = conditions: in vitro; at clinically relevant concentrations; cited from earlier work
[5] = system: breast cancer resistance protein; conditions: in vitro; at clinically relevant concentrations; cited from earlier work
[6] = system: organic cation transporter 1; conditions: in vitro; at clinically relevant concentrations; cited from earlier work
bile salt export pump = conditions: in vitro; at clinically relevant concentrations; cited from earlier work
[7] = system: organic anion transporter 1; conditions: in vitro; at clinically relevant concentrations; cited from earlier work
[8] = system: organic anion transporter 3; conditions: in vitro; at clinically relevant concentrations; cited from earlier work
[9] = system: organic anion transporter 4; conditions: in vitro; at clinically relevant concentrations; cited from earlier work
[10] = cited from earlier work
Safety assessments = type: in vivo, human; conditions: for subjects with AEs: all grade 1
[11] = available data; cited from earlier work
[12] = Study 3: metformin pharmacokinetics alone or with filgotinib in healthy subjects; conditions: human, plasma, oral, 850 mg
CES1 = conditions: human hepatocytes; cited from earlier work
CES2 = conditions: human hepatocytes; cited from earlier work
[13] = filgotinib + itraconazole vs filgotinib alone
[14] = single filgotinib 100 mg alone, fasting, median (Q1, Q3), N = 13
[15] = single filgotinib 100 mg alone, fasting, plasma, mean (%CV), N = 13
[16] = filgotinib 200 mg after multiple doses of rifampin 600 mg vs alone
[17] = filgotinib + rifampin vs filgotinib alone
[18] = single filgotinib 200 mg alone, fasting, plasma, mean (%CV), N = 14
[19] = single filgotinib 200 mg alone, median (Q1, Q3), N = 14
[20] = patients with rheumatoid arthritis

With `Nc1nc2cccc(-c3ccc(CN4CCS(=O)(=O)CC4)cc3)n2n1` [GS‐829845] the “AUCinf %GLSM ratio (90% CI)” value [1, 13] was 107 (104,110) %, the “AUClast %GLSM ratio (90% CI)” value [1, 13] was 106 (103,109) % and the “effect of itraconazole on pharmacokinetic parameters (in words)” value ([1]; filgotinib: Tmax, t1/2, GS‐829845: C max, AUCinf, T max, t 1/2) was “no effect; also recorded: similar; also recorded: did not affect”. For the same compound, the T max [1, 14] was 4.00 (4.00, 4.00) h, the “t1/2” value [1, 14] was 17.0 (14.0,19.5) h and the AUCinf [1, 15] was 31,200 (18.4) ng*h/ml. For the same compound, the AUClast [1, 15] was 30,800 (18.0) ng*h/ml, the C max [1, 15] was 1160 (24.8) ng/ml and the “reduction in AUCinf by rifampin” value [2, 16] was 38%. The “reduction in C max by rifampin” value [2, 16] was 19%, the “AUCinf %GLSM ratio (90% CI)” value [2, 17] was 61.9 (57.9, 66.1) % and the “AUClast %GLSM ratio (90% CI)” value [2, 17] was 62.3 (58.4, 66.4) %. For the same compound, the “C max %GLSM ratio (90% CI)” value [2, 17] was 81.0 (76.8, 85.4) %, the “effect of rifampin on T max and t 1/2 (in words)” value ([2]; filgotinib: T max and t 1/2, GS‐829845: Tmax) was “similar” and the AUCinf [2, 18] was 77,400 (25.3) ng*h/ml. For the same compound, the AUClast [2, 18] was 76,700 (24.8) ng*h/ml, the C max [2, 18] was 2900 (15.1) ng/ml and the Tmax [2, 19] was 4.00 (3.00, 4.00) h. The t1/2 [2, 19] was 15.9 (14.8, 18.9) h, the “inhibition of OCT2 (in words)” value ([3]; in vitro data) was “may inhibit” and the “ratio of maximum unbound plasma concentration over in vitro IC50 against OCT2” value [3, 20] was 0.5. The “inhibition of MATE2K (in words)” value (MATE2K; in vitro data) was “may inhibit”, the “ratio of maximum unbound plasma concentration over in vitro IC50 against MATE2K” value (MATE2K; [20]) was 0.69 and the “JAK1 potency relative to filgotinib” value (JAK1) was ~ 1/10. For the same compound, the “orally administered dose recovered in feces as the named species” value [4] was ~ 9%, the “orally administered dose recovered in urine as the named species” value [4] was ~ 54% and the “substrate of P‐glycoprotein” value (P‐glycoprotein) was “substrates”. For the same compound, the “inhibition of P‐gp” value (P‐gp) was “not inhibitors”, the “inhibition of breast cancer resistance protein” value [5] was “not inhibitors” and the “inhibition of organic cation transporter 1” value [6] was “not inhibitors”. For the same compound, the “inhibition of bile salt export pump” value (bile salt export pump) was “not inhibitors”, the “inhibition of organic anion transporter 1” value [7] was “not inhibitors” and the “inhibition of organic anion transporter 3” value [8] was “not inhibitors”. For the same compound, the “inhibition of organic anion transporter 4” value [9] was “not inhibitors”, the “accumulation following multiple doses” value [10] was “approximately twofold accumulation” and the “time to steady‐state concentrations” value [10] was ~4 days.
For `CN(C)C(=N)N=C(N)N` [Metformin, metformin], the “subjects with AEs” value (Safety assessments; study 3, by treatment period) is listed as 25%, the “AE considered related to study drug (kind of AE)” value (Safety assessments; study 3, one subject, by treatment phase) is listed as “nausea + vomiting” and the “maximal increase of metformin exposure via OCT2, MATE1, and MATE2K inhibition” value [11] is listed as ~ 2.6 fold. It also gave an AUC(0-inf) [12] of 8720 ng·h/mL and an AUC(0-t) [12] of 8640 ng·h/mL.
For `CO[C@H]1/C=C/O[C@@]2(C)Oc3c(C)c(O)c4c(O)c(c(/C=N/N5CCN(C)CC5)c(O)c4c3C2=O)NC(=O)/C(C)=C\C=C\[C@H](C)[C@H](O)[C@@H](C)[C@@H](O)[C@@H](C)[C@H](OC(C)=O)[C@@H]1C` [rifampin, reference compound], the “subjects with AEs considered to be related to study drug (nausea)” value (Safety assessments; study 2) was 7.1%, the “subjects with grade 3 laboratory abnormality (occult blood in urine)” value (Safety assessments; study 2) was 14% and the “subjects with AEs” value (Safety assessments; study 2, by treatment period) was 14%. For the same compound, the “subjects with at least one graded laboratory abnormality” value (Safety assessments; study 2, by treatment period, majority grade 1 or 2) was 93%, the “induction of CES1” value (CES1) was “moderate induction” and the “induction of CES2” value (CES2) was “moderate induction”.

Source: article PMC8841438 (Clinical and Translational Science, 2021)
